Laboratory results published in ChEMBL document CHEMBL3988442, “University of Dundee, Small-Polar-MMV Screening Library” (2021).
Several values for one entry are separate records, joined by “and”; a condition that tells them apart may be missing. Identical values can stand only once.

How the values were obtained:
Trypanosoma brucei = test: Trypanosoma brucei 72 hour study; format: functional, organism-based; details: for IC50: Trypanosoma brucei, 72 h
Plasmodium falciparum = test: Calibr Malaria Delayed Death Assay SOP; format: functional, organism-based; details: for IC50: Plasmodium falciparum
[1] = molecular target: T1, Coenzyme A biosynthesis bifunctional protein CoaBC (Mycobacterium tuberculosis (strain ATCC 25618 / H37Rv), UniProt P9WNZ1); test: Biomol Green assay for MtCoaBC inhibitor, OD650 read; format: functional
T1 sequence (P9WNZ1 whole entry): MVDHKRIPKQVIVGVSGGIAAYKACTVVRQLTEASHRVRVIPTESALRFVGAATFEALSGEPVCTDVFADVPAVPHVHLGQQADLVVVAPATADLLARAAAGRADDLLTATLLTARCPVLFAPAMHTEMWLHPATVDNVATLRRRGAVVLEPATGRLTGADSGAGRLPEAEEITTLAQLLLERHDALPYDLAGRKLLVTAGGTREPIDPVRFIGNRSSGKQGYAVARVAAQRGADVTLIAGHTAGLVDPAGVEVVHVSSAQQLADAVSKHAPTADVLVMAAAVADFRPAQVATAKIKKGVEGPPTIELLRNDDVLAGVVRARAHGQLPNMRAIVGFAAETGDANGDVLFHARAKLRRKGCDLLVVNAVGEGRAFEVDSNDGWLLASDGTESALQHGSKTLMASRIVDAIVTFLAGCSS

Histidine--tRNA ligase [2] = molecular target: T2, Histidine--tRNA ligase (Leishmania infantum, UniProt A4I591); test: Leishmania infantum Histidine tRNA synthetase (LdHisRS); format: functional
T2 sequence (A4I591 whole entry): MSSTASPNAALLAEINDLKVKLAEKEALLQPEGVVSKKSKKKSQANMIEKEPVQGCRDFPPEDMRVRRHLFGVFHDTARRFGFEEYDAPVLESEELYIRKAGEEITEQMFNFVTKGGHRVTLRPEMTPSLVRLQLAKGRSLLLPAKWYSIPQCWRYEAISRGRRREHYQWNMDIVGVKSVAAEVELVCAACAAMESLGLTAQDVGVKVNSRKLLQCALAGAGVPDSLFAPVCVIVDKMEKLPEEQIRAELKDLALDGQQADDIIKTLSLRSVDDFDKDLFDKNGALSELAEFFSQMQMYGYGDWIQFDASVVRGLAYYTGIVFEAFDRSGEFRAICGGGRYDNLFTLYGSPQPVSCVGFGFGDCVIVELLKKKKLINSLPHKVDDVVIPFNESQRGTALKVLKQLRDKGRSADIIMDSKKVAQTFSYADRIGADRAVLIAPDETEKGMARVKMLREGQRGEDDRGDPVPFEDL

Histidine--tRNA ligase [3] = molecular target: T3, Histidine--tRNA ligase (Trypanosoma cruzi (strain CL Brener), UniProt Q4DA54); test: Trypanosoma cruzi histidyl tRNA synthetase (Tc-HisRS); format: functional
T3 sequence (Q4DA54 whole entry): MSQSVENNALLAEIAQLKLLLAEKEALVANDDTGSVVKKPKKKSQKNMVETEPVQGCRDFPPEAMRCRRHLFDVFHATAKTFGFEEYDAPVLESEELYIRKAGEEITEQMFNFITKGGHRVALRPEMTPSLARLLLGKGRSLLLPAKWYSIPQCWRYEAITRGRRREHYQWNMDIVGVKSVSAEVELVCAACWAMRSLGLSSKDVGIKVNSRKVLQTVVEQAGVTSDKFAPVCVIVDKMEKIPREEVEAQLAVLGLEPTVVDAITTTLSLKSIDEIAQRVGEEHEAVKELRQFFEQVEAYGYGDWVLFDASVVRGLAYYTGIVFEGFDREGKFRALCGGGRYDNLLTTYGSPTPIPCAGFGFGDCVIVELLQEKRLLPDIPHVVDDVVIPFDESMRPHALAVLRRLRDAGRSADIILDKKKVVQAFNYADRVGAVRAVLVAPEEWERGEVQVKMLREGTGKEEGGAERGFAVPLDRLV

Lysine--tRNA ligase = Lysine--tRNA ligase (Plasmodium falciparum (isolate 3D7), UniProt Q8IDJ8); test: Pf-KRS-1 (Lysyl-RNA Synthetase-1, KRS-1, cytosolic KRS) from Plasmodium falciparum. Inhibitor assay, 384 well plate, luminescence read.; format: functional
Chain of Lysine--tRNA ligase (Q8IDJ8 whole entry): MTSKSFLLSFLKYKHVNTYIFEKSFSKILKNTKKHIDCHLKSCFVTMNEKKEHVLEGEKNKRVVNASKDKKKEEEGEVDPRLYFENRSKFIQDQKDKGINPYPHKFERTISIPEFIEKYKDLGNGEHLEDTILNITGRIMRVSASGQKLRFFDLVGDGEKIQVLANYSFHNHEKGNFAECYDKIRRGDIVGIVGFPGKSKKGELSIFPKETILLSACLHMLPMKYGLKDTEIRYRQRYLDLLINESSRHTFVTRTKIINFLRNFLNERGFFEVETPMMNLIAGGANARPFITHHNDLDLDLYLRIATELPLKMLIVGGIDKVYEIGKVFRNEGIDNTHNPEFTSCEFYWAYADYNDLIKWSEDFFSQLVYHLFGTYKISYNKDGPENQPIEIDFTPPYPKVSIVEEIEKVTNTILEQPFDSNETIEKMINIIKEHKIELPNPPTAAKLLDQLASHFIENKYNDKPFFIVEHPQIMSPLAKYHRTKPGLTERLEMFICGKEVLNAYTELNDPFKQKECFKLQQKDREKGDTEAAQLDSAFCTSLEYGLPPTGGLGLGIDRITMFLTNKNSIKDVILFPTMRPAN

[4] = test system: Mycobacterium tuberculosis; test: Cornell M. t heat shock assay; format: functional, organism-based; details: Mycobacterium tuberculosis
[5] = molecular target: T4, Ubiquitin-activating enzyme e1, putative (Leishmania donovani (strain BPK282A1), UniProt E9BSI1); test: Leishmania donovani Ubiquitin Activating Enzyme (LdE1); format: functional
T4 sequence (E9BSI1 whole entry): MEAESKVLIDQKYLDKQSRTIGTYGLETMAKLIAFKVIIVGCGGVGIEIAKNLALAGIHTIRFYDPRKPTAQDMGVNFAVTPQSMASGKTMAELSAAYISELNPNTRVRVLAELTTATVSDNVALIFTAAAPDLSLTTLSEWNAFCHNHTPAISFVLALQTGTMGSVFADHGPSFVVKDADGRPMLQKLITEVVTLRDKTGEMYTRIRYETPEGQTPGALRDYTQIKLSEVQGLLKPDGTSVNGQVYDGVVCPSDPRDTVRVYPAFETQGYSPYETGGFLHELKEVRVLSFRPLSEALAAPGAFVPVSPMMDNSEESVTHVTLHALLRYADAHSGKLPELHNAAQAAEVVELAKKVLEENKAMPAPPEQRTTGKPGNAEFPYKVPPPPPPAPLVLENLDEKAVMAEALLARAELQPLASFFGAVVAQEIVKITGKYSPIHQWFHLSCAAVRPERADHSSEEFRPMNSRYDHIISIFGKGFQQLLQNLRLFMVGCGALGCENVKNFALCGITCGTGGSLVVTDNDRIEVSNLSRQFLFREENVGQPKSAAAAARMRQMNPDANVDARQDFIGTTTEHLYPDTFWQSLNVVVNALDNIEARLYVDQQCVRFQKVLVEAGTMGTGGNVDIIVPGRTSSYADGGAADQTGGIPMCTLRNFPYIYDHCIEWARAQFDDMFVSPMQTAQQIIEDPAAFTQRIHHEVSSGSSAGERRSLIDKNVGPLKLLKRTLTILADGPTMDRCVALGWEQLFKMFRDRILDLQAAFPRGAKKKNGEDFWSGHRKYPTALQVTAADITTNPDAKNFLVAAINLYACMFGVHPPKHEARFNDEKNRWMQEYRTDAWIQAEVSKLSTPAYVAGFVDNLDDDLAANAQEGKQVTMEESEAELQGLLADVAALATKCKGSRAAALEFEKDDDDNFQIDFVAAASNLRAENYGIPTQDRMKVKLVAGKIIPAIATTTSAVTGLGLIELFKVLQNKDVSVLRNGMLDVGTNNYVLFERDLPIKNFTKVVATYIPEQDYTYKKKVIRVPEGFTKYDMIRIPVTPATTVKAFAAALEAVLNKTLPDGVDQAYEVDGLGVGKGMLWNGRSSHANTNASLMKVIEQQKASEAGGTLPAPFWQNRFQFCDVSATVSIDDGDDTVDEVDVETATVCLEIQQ

[6] = microbe, parasite or virus in culture; details: Mycobacterium tuberculosis, 72 h, read-out: pIC50 (converted)
[7] = microbe, parasite or virus in culture; details: Mycobacterium tuberculosis, 96 h, read-out: pIC50 (converted)

Row | SMILES | IC50 (Histidine--tRNA ligase [2]) | IC50 (Histidine--tRNA ligase [3]) | IC50 (Lysine--tRNA ligase) [µM] | other results
1 | CN(C)c1ccc(-c2cc(C(=O)O)cc(S(=O)(=O)NC3CC3)c2)cc1 | – | – | – | pIC50 (Trypanosoma brucei): 5.904 and 6.15; IC50 (Trypanosoma brucei): 0.716 µM
2 | NCC1Cc2cc(-c3nccc(N4CCC(O)CC4)n3)cc(F)c2O1 (centres undefined) | 31.2 µM and 28.1 µM | 20.1 µM and 18.7 µM | – | pIC50 (Plasmodium falciparum): 6.277; IC50 (Plasmodium falciparum): 0.569 µM; IC50 [1]: > 30.2 µM
3 | CCCn1cc(NC(=O)c2ccncc2)ccc1=O | 3.64 µM and 3.18 µM | 5.29 µM and 4 µM | > 50.1 | –
4 | Cc1cc(C)n(CC2CCCN2Cc2nc(N)c3ccccc3n2)n1 (centres undefined) | – | > 100 µM | – | IC50 [4]: > 100 µM
5 | Cn1cc(NC(=O)NCc2ccsc2)ccc1=O | 2.07 µM and 2.41 µM and 2.32 µM and 2.42 µM | 4.72 µM and 5.06 µM | > 50.1 | –
6 | CN(Cc1ccsc1)C(=O)Nc1ccc(=O)n(C)c1 | 4.2 µM and 4.05 µM | 4.99 µM and 3.42 µM | > 50.1 | –
7 | Cc1cc(=O)n(C)cc1NC(=O)Cc1cc(F)ccc1F | 1.69 µM and 2.09 µM and 0.814 µM and 0.806 µM | 21.1 µM | > 50.1 | –
8 | Cc1cc(=O)n(C)cc1NC(=O)Cc1cccc(Cl)c1 | 5 µM and 6.56 µM | 4.77 µM | > 50.1 | –
9 | Cn1cc(NC(=O)N2CCC(NS(C)(=O)=O)CC2)ccc1=O | 2.32 µM and 2.57 µM | 52.1 µM and 49.1 µM | > 50.1 | IC50 [5]: > 100 µM; IC50 [1]: > 30.2 µM
10 | Cn1cc(NC(=O)N2CCC(CN3CCCC3)CC2)ccc1=O | – | > 100 µM | – | IC50 [5]: > 100 µM
11 | O=C(NCCc1ccn(-c2ccccc2)n1)N1CCC1 | – | – | – | pIC50 (Trypanosoma brucei): 6.164 and 6.213; IC50 (Trypanosoma brucei): 0.53 µM
12 | Cn1cc(NC(=O)NCc2ccoc2)ccc1=O | 3.44 µM and 3.04 µM | 7.29 µM and 8.84 µM | > 50.1 | –
13 | Cl.Fc1ccc(F)c(CN2CCC(c3cc4ncccc4cn3)CC2)c1 | – | 58.4 µM and 43.6 µM | – | pIC50 (Plasmodium falciparum): 6.54; IC50 (Plasmodium falciparum): 0.505 µM; IC50 [6]: 27.2 µM; IC50 [7]: > 50.1 µM; IC50 [4]: > 100 µM
14 | Cc1cc(=O)n(C)cc1NC(=O)NCc1cccc(F)c1 | 6.8 µM and 6.63 µM | 9.43 µM and 9.23 µM | > 50.1 | –
15 | CCOC1CCCN(C(=O)NCCc2ccn(-c3ccccc3)n2)C1 (centres undefined) | – | – | – | pIC50 (Trypanosoma brucei): 6.745 and 6.727; IC50 (Trypanosoma brucei): 0.141 µM
16 | Cn1cc(NC(=O)C2CC(c3ccccc3)C2)ccc1=O (centres undefined) | 8.88 µM and 10.5 µM | 8.22 µM | – | IC50 [5]: > 100 µM
17 | Cn1cc(NC(=O)N2CCC(OCc3ccccc3)CC2)ccc1=O | 11.6 µM and 6.66 µM | 17 µM and 14.8 µM | – | IC50 [5]: > 100 µM
18 | c1ccc(N2CCCC3(COCCN(c4nccs4)C3)C2)nc1 (centres undefined) | – | 73.9 µM and 71.8 µM | – | IC50 [1]: > 30.2 µM
19 | O=C(NCc1cnn2cccnc12)c1cccc(CC2CCNCC2)c1 | 17.6 µM and 18.9 µM | 39.3 µM and 21.3 µM | – | IC50 [6]: 41.5 µM; IC50 [7]: 45.6 µM
